From US20040152772A1, “1-butyric acid derivatives and the use thereof” (priority 2001, published 2004)

Key:
Novikoff hepatoma cells = assay: Proliferation of Novikoff hepatoma cells, cell count per flask after four days of cultivation; format: cell-based; details: FIGS. 1 and 2
Source text: The Novikoff hepatoma cells that were used derived from the Tumor Bank of the German Cancer Research Center, Heidelberg (Cancer Research 1951, 17, 1010). 100,000 cells were spread out per 25 cm^2 of cultivation surface on each occasion. After having been dissolved in a solvent, such as e.g. water, diluted ethanol, dimethyl sulfoxide or a similar material that is suitable for use in cell cultures, the substance in accordance with the invention according to Example 1, or L-cycloserine, or dehydrothreonine was added to the culture medium in increasing concentrations, e.g. L-cycloserine (Compound 16) or dehydrothreonine (Compound 2) in the range of concentrations from 80 μM-5000 μM; and carbomethoxypropionyl cyanide (Compound 13) in the range of concentrations from 100 μM-300 μM. The cell count per flask was enumerated after four days of cultivation.

Novikoff cells = assay: Effect on the metabolism (flow of glycolysis) of Novikoff cells; format: cell-based; details: FIG. 3

Structure (SMILES)	inhibition of proliferation (cell count per flask) in comparison to the control sample (Novikoff hepatoma cells; concentrations 80 μM-5000 μM)	inhibition of proliferation (cell count per flask) in comparison to the control sample (Novikoff hepatoma cells; concentrations 100 μM-300 μM)	flow of glycolysis (Novikoff cells)
C/C(O)=C(/N)C(=O)O [Compound 2, dehydrothreonine]	dose-dependent inhibition of proliferation	–	–
COC(=O)CCC(=O)C#N [Compound 9, methyl ester of 4-cyano, 4-oxo-butanoic acid]	–	dose-dependent inhibition of proliferation	massively inhibited the flow of glycolysis
N[C@H]1CONC1=O [Compound 16, L-cycloserine]	dose-dependent inhibition of proliferation	–	–
